One compound from patent US11649208B2, “Compounds and methods for treating alcohol disorder” (SOPHROSYNE PHARMACEUTICALS LIMITED, priority 2021, dated 2023) can be followed below.

As a reminder, the melting point is the temperature, or range, at which the solid turns liquid.

Each structure is given as a SMILES string.

In one data set the target is T1, liver ALDH2 (Rattus norvegicus, UniProt P11884).
T1 construct: from tissue; host or cells: liver (left lateral lobe) lysate of Sprague Dawley (CD-IGS) rats
T1 sequence (P11884 20-519): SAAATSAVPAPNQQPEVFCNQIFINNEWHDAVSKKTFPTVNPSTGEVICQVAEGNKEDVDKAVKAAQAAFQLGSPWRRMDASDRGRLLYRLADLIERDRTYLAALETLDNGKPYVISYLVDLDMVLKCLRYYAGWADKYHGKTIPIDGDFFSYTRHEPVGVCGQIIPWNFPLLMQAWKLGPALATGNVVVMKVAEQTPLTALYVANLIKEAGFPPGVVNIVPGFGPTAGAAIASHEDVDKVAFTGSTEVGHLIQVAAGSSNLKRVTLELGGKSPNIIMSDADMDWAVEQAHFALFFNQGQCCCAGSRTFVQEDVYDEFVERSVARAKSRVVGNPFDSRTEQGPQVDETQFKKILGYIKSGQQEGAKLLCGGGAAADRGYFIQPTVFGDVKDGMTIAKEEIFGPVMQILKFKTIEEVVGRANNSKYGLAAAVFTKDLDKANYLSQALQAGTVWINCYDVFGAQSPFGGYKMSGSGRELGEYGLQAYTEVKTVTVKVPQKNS
Nature of the data set: In vivo ALDH2 enzymatic activity assay, ethanol challenge (Example 2). Conditions: 20 mg/kg (Day 1), 12 mg/kg (Days 2-5) tail vein injection QD 5 days; ethanol challenge. Details: species or system rats (Sprague Dawley). How it is done:
Sixty (60) male and sixty (60) female Sprague Dawley (CD-IGS) were obtained from Charles River Laboratories. All animals were housed under controlled conditions of temperature (72±8° F.), relative humidity (30-70%) and a 12-hour light-dark cycle (light from 6:00 AM to 6:00 PM). All animals were allowed free access to standard rodent chow (PicoLab Rodent Diet 20) and water (reverse osmosis, 0.2 μM filtered). Animals had at least a 3-day acclimation period prior to study.
Example 1-2 was synthesized by PharmAgra Labs, Lot #489PAL97; and stored at 4° C. and protected from light upon receipt. Example 1-2 dosing solutions were prepared by dissolving in PBS (pH 7.0) and thoroughly mixing via vortexing and sonication.
Example 1-15 was synthesized by PharmAgra Labs, Lot #505PAL17; and stored at 4° C. and protected from light upon receipt. Example 1-15 dosing solution was prepared by dissolving in PBS (pH 7.0) and thoroughly mixing via vortexing and sonication. The dosing formulation at concentration of 20 mg/mL was a clear solution.
Body weights of the animals in Groups 1-4 were obtained on Day 1. Body weights of the animals in Groups 5-8 were obtained on Days 1-3 respectively. Body weights of the animals in Groups 9-13 were obtained on Days 1, 4 and 5 respectively.
Animals were respectively administered vehicle and Example 1-2 at dosages of 2, 6.5 or 12 mg/kg via tail vein injection, once daily for 1 day (Groups 1-4), once daily for 3 days (Groups 5-8), or once daily for 5 days (Groups 9-12). For Group 13, animals were administered 20 mg/kg (on Day 1) or 12 mg/kg (on Days 2-5) dose via tail vein injection, once daily for 5 days. In some studies, the animals were administered a compound described herein for 10 days. In some studies, the animals were administered a compound described herein for 12 days. In some studies, the study was carried out with administered the compounds described herein including Example 1-2 racemate, Example 1-2A, Example 1-21B, Example 1-11 racemate, Example 1-11A, and/or Example 1-11B at a dosage of about 0.5, 1, 2, 4, and 8 mg.
Dosing volume (1 or 0.6 mL/kg) was calculated based on the body weight of the individual animal obtained on Day 1 (all groups), Days 2-3 (Groups 5-8), and Days 4-5 (Groups 9-13).
Ethanol (200PRF or 100% pure, non-denatured and no additives) was obtained from Fisher Scientific. The ethanol dosing solution was prepared fresh for each use. One (1) mL of ethanol was added to four (4) mL of saline (0.9% NaCl) in a glass vial and mixed by vortexing to create a uniform solution prior to administration. Animals were administered 20% ethanol at 1 g/kg (IP) 8 hours following the last dose of test article. Thirty (30) minutes following ethanol challenge, animals were euthanized with CO2. About 7 mL of whole blood was rapidly collected via vena cava for generation of serum samples for assays (Acetaldehyde assay by GPL and ALDH2 activity and protein assay by Eurofins). Blood samples were placed into serum separator tubes and maintained at room temperature for at least 30 minutes to allow clot formation prior to processing.
The left lateral lobe of liver was harvested and rinsed in cold saline to render a sample that was snap frozen in liquid nitrogen. Samples were stored at −80° C. until shipment. […]
The obtained serum samples as described herein were measured in singlicate for Acetaldehyde concentration using the Acetaldehyde Colorimetric Assay Kit (BioAssay Systems, #EACT-100), in accordance with manufacturer's instructions. […]

On to `CCN(CC)C(=O)[S+]([O-])CC[S+]([O-])C(=O)N(CC)CC` (centres unmarked) [Example 1-15, 1-1′-(ethane-1,2-diyldisulfinyl)bis(N,N-diethylmethanamide)], for which the melting point fell in the range of 71.2 to 74.5 °C. Further, the “ALDH2 inhibition activity in comparison with the negative control group” value at liver ALDH2 is “did not show any inhibition activity”.
